Results: US20250092039A1, “GLUTARIMIDE-CONTAINING PAN-KRAS-MUTANT DEGRADER COMPOUNDS AND USES THEREOF” (Tiger Biotherapeutics Inc., priority 2022, published 2025)
Read-outs that look alike come from different tables or passages of the source.

Legend:
SW620 cells = assay: 3D cell growth inhibition of SW620 cells carrying endogenous KRAS G12V mutation (CellTiter-Glo 3D, GI50); type: cell-based; settings: Homo sapiens, SW-620, 144 h, read-out: SW620 3D cell growth GI50
Procedure, shortened: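 […], compound exposure lasted 6 days at 37° C, added the day after plating from DMSO stocks over a concentration range. Cells: SW620, KRAS G12V, 3D culture.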

KRAS G12V = KRAS G12V (Homo sapiens (Human), UniProt P01116, G12V); assay: KRAS G12V degradation in SW620 cells (Western blot, DC50); type: cell-based; settings: 24 hours
Procedure, shortened: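 KRAS levels were quantified by fluorescent Western blot as percent of the DMSO control after 24 h of compound exposure at 37° C in homozygous KRAS G12V SW620 cells. A four-parameter variable-slope fit of the dose-response gave the half-maximal degradation concentration.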

[1] = Pharmacokinetics following single intravenous and oral gavage dosing (AUC0-24h); type: in vivo; settings: mouse, plasma, male CD-1 mice
Method: Compounds disclosed herein were studied for animal tolerability and pharmacokinetics following single intravenous (iv) and oral gavage (po) dosing to male CD-1 mice. For each compound in each dosing route, 3 mice were used with iv dosing volume of 5 mL/kg and po dosing volume of 10 mL/kg. The compounds were formulated in 10% DMSO, 30% PEG400, 60% aqueous solution containing 20% 2-hydroxypropyl-β-cyclodextrin. Blood sampling time points for iv dosing were 0.083, 0.25, 0.5, 1, 2, 4, 8 and 24 h. The sampling time points for po dosing were 0.25, 0.5, 1, 2, 4, 6, 8 and 24 h. Mice activities were monitored and recorded immediately following the dosing. The prepared plasma samples were analyzed using LC/MS/MS on AB Sciex Triple Quad 5500+ system. The PK parameters were determined by non-compartmental analysis using WinNonlin (Version 8.0).

KRAS-G12V/RAF1 = KRAS-G12V/RAF1 (Homo sapiens (Human), UniProt P01116, G12V); assay: KRAS/RAF1 binding inhibition assay (AlphaScreen)
Procedure, shortened: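 IC50 comes from variable-slope nonlinear fits of % inhibition (relative to DMSO) against inhibitor concentration. The AlphaScreen signal tracks the interaction of GppNHp-bound KRAS G12V with the RAF1 RBD after 60 min at 4° C with compound in 2% DMSO final.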

Chain of KRAS-G12V/RAF1 (P01116-2 other isoform, or with tags, fused parts or gaps G12V): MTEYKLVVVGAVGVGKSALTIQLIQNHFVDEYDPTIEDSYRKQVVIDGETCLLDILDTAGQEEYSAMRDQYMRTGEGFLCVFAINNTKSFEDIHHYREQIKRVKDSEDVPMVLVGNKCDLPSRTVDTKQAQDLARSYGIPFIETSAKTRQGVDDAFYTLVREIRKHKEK
Chain of KRAS G12V (P01116-2 other isoform, or with tags, fused parts or gaps G12V): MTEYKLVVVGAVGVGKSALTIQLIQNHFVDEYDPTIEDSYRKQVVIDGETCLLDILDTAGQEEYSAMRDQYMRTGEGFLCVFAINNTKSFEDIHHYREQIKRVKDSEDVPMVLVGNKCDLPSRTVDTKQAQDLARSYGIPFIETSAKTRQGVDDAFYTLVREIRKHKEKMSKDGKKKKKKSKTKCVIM

Compound	GI50 (SW620 cells; SW620 cells, 6 days)	DC50 (KRAS G12V)	AUC(0-t) ([1]; single oral dose 30 mg/Kg)	IC50 (KRAS-G12V/RAF1)	AUC(0-t) ([1]; single oral dose 50 mg/Kg)	GI50 (SW620 cells)
CCc1c(F)ccc2cc(O)cc(-c3ncc4c(N5CCC[C@@](C)(O)C5)nc(OCC5(CN6CCC(C)(CN7CCN(c8ccc9c(c8)CN([C@H]8CCC(=O)NC8=O)C9=O)CC7)CC6)CC5)nc4c3F)c12 [Compound 12, (S)-3-(5-(4-((1-((1-(((7-(8-ethyl-7-fluoro-3-hydroxynaphthalen-1-yl)-8-fluoro-4-((R)-3-hydroxy-3-methylpiperidin-1-yl)pyrido[4,3-d]pyrimidin-2-yl)oxy)methyl)cyclopropyl)methyl)-4-methylpiperidin-4-yl)methyl)piperazin-1-yl)-1-oxoisoindolin-2-yl)piperidine-2,6-dione]	< 10 nM	< 1 nM	3250 ng·h/mL	20 to 200 nM		
CCc1c(F)ccc2cc(O)cc(-c3ncc4c(N5CCC[C@@](C)(O)C5)nc(OCC5(CN6CCC(F)(CN7CCN(c8ccc9c(c8)CN([C@H]8CCC(=O)NC8=O)C9=O)CC7)CC6)CC5)nc4c3F)c12 [Compound 8, (S)-3-(5-(4-((1-((1-(((7-(8-ethyl-7-fluoro-3-hydroxynaphthalen-1-yl)-8-fluoro-4-((R)-3-hydroxy-3-methylpiperidin-1-yl)pyrido[4,3-d]pyrimidin-2-yl)oxy)methyl)cyclopropyl)methyl)-4-fluoropiperidin-4-yl)methyl)piperazin-1-yl)-1-oxoisoindolin-2-yl)piperidine-2,6-dione]	< 10 nM	< 1 nM	3420 ng·h/mL	20 to 200 nM		
CCc1c(F)ccc2cc(O)cc(-c3ncc4c(N5CCC[C@]6(CCO6)C5)nc(OCC5(CN6CCC(F)(CN7CCN(c8ccc9c(c8)CN([C@H]8CCC(=O)NC8=O)C9=O)CC7)CC6)CC5)nc4c3F)c12 [Compound 86, (S)-3-(5-(4-((1-((1-(((7-(8-ethyl-7-fluoro-3-hydroxynaphthalen-1-yl)-8-fluoro-4-((S)-1-oxa-6-azaspiro[3.5]nonan-6-yl)pyrido[4,3-d]pyrimidin-2-yl)oxy)methyl)cyclopropyl)methyl)-4-fluoropiperidin-4-yl)methyl)piperazin-1-yl)-1-oxoisoindolin-2-yl)piperidine-2,6-dione]	< 10 nM	< 1 nM	1320 ng·h/mL	20 to 200 nM		
CCc1c(F)ccc2cc(O)cc(-c3ncc4c(N5CCC[C@]6(CCO6)C5)nc(OCC5(CN6CCC7(CCC(N8CCN(c9ccc%10c(c9)CN([C@H]9CCC(=O)NC9=O)C%10=O)CC8)CC7)CC6)CC5)nc4c3F)c12 [Compound 219, (S)-3-(5-(4-(3-((1-(((7-(8-ethyl-7-fluoro-3-hydroxynaphthalen-1-yl)-8-fluoro-4-((S)-1-oxa-6-azaspiro[3.5]nonan-6-yl)pyrido[4,3-d]pyrimidin-2-yl)oxy)methyl)cyclopropyl)methyl)-3-azaspiro[5.5]undecan-9-yl)piperazin-1-yl)-1-oxoisoindolin-2-yl)piperidine-2,6-dione]	< 10 nM	< 1 nM	718 ng·h/mL	< 20 nM		
CCc1c(F)ccc2cc(O)cc(-c3ncc4c(N5CCC[C@@](C)(O)C5)nc(OCC5(CN6CCC7(CC6)CC(N6CCN(c8cc(F)c(C9CCC(=O)NC9=O)c(F)c8)CC6)C7)CC5)nc4c3F)c12 (stereo partly drawn) [Compound 50, 3-(4-(4-(7-((1-(((7-(8-ethyl-7-fluoro-3-hydroxynaphthalen-1-yl)-8-fluoro-4-((R)-3-hydroxy-3-methylpiperidin-1-yl)pyrido[4,3-d]pyrimidin-2-yl)oxy)methyl)cyclopropyl)methyl)-7-azaspiro[3.5]nonan-2-yl)piperazin-1-yl)-2,6-difluorophenyl)piperidine-2,6-dione]	< 10 nM	< 1 nM	3900 ng·h/mL	20 to 200 nM		
CCc1c(F)ccc2cc(O)cc(-c3ncc4c(N5CCC[C@]6(CCO6)C5)nc(OCC5(CN6CCC7(CC6)CC(F)(CN6CCN(c8ccc9c(c8)CN([C@H]8CCC(=O)NC8=O)C9=O)CC6)C7)CC5)nc4c3F)c12 [Compound 214, (S)-3-(5-(4-((7-((1-(((7-(8-ethyl-7-fluoro-3-hydroxynaphthalen-1-yl)-8-fluoro-4-((S)-1-oxa-6-azaspiro[3.5]nonan-6-yl)pyrido[4,3-d]pyrimidin-2-yl)oxy)methyl)cyclopropyl)methyl)-2-fluoro-7-azaspiro[3.5]nonan-2-yl)methyl)piperazin-1-yl)-1-oxoisoindolin-2-yl)piperidine-2,6-dione]	< 10 nM	< 1 nM	1460 ng·h/mL	20 to 200 nM		
CCc1c(F)ccc2cc(O)cc(-c3ncc4c(N5CCC[C@@](C)(O)C5)nc(OCC5(CN6CCC7(CC6)CC(N6CCN(c8ccc9c(c8)CN([C@H]8CCC(=O)NC8=O)C9=O)CC6)C7)CC5)nc4c3F)c12 [Compound 121, (S)-3-(5-(4-(7-((1-(((7-(8-ethyl-7-fluoro-3-hydroxynaphthalen-1-yl)-8-fluoro-4-((R)-3-hydroxy-3-methylpiperidin-1-yl)pyrido[4,3-d]pyrimidin-2-yl)oxy)methyl)cyclopropyl)methyl)-7-azaspiro[3.5]nonan-2-yl)piperazin-1-yl)-1-oxoisoindolin-2-yl)piperidine-2,6-dione]	< 10 nM	< 1 nM		< 20 nM	598 ng·h/mL	
CCc1c(F)ccc2cc(O)cc(-c3ncc4c(N5CCC[C@@](C)(O)C5)nc(OCC5(CN6CCC7(CC6)CC(F)(CN6CCN(c8ccc9c(c8)CN([C@H]8CCC(=O)NC8=O)C9=O)CC6)C7)CC5)nc4c3F)c12 [Compound 134, (S)-3-(5-(4-((7-((1-(((7-(8-ethyl-7-fluoro-3-hydroxynaphthalen-1-yl)-8-fluoro-4-((R)-3-hydroxy-3-methylpiperidin-1-yl)pyrido[4,3-d]pyrimidin-2-yl)oxy)methyl)cyclopropyl)methyl)-2-fluoro-7-azaspiro[3.5]nonan-2-yl)methyl)piperazin-1-yl)-1-oxoisoindolin-2-yl)piperidine-2,6-dione]		< 1 nM	982 ng·h/mL	20 to 200 nM	1940 ng·h/mL	< 10 nM
CCc1c(F)ccc2cc(O)cc(-c3ncc4c(N5CCC[C@@](C)(O)C5)nc(OCC5(CN6CC7(CCC(N8CCN(c9cc(F)c(C%10CCC(=O)NC%10=O)c(F)c9)CC8)CC7)C6)CC5)nc4c3F)c12 (stereo partly drawn) [Compound 60, 3-(4-(4-(2-((1-(((7-(8-ethyl-7-fluoro-3-hydroxynaphthalen-1-yl)-8-fluoro-4-((R)-3-hydroxy-3-methylpiperidin-1-yl)pyrido[4,3-d]pyrimidin-2-yl)oxy)methyl)cyclopropyl)methyl)-2-azaspiro[3.5]nonan-7-yl)piperazin-1-yl)-2,6-difluorophenyl)piperidine-2,6-dione]	< 10 nM	< 1 nM	1780 ng·h/mL	20 to 200 nM		
CCc1c(F)ccc2cc(O)cc(-c3ncc4c(N5CCC[C@@](C)(O)C5)nc(OCC5(CN6CCC(C)(CN7CC8(CCN(c9ccc%10c(c9)CN([C@H]9CCC(=O)NC9=O)C%10=O)CC8)C7)CC6)CC5)nc4c3F)c12 [Compound 40, (3S)-3-(5-(2-[(1-{[1-({[7-(8-ethyl-7-fluoro-3-hydroxynaphthalen-1-yl)-8-fluoro-4-[(3R)-3-hydroxy-3-methylpiperidin-1-yl]pyrido[4,3-d]pyrimidin-2-yl]oxy}methyl)cyclopropyl]methyl}-4-methylpiperidin-4-yl)methyl]-2,7-diazaspiro[3.5]nonan-7-yl}-1-oxo-3H-isoindol-2-yl)piperidine-2,6-dione]	< 10 nM	< 1 nM	652 ng·h/mL	< 20 nM		
